This passage reports Dmax results from US11739101B2, “Bifunctional degraders of hematopoietic progenitor kinase and therapeutic uses thereof” (Nurix Therapeutics, Inc., priority 2020, dated 2023).

For this experiment, the target named is T1, HPK1 (Homo sapiens, UniProt Q92918).
T1 construct: A HiBiT tag was introduced by CRISPR on the N terminus of HPK1 in Jurkat cells; host or cells: Jurkat (ATCC TIB-152), monoclonal CRISPR HiBiT knock-in line
Briefly: HPK1 Cellular HiBiT Degradation Assay. In kind it is cell-based. To be noted: HiBiT-tagged HPK1 Jurkat cells, 24 hours, 10 uM to 0.1 nM; Dmax = 100 minus lowest % HPK1 remaining vs DMSO vehicle. An outline of the steps: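 Dmax is derived from four-parameter curves of % HPK1 remaining, as 100 minus the lowest value, normalized to DMSO-treated cells with parental Jurkat background subtracted. HiBiT-HPK1 knock-in Jurkat cells got compound for 24 hours (final 10 uM to 0.1 nM, 11 points) before lytic HiBiT luminescence. Cytotoxicity was checked on parallel CellTiter-Glo plates.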
A general note: With HiBiT, luminescence reflects the tagged protein that the partner subunit can reach.

Structures are written as SMILES.

T1 sequence (Q92918 whole entry): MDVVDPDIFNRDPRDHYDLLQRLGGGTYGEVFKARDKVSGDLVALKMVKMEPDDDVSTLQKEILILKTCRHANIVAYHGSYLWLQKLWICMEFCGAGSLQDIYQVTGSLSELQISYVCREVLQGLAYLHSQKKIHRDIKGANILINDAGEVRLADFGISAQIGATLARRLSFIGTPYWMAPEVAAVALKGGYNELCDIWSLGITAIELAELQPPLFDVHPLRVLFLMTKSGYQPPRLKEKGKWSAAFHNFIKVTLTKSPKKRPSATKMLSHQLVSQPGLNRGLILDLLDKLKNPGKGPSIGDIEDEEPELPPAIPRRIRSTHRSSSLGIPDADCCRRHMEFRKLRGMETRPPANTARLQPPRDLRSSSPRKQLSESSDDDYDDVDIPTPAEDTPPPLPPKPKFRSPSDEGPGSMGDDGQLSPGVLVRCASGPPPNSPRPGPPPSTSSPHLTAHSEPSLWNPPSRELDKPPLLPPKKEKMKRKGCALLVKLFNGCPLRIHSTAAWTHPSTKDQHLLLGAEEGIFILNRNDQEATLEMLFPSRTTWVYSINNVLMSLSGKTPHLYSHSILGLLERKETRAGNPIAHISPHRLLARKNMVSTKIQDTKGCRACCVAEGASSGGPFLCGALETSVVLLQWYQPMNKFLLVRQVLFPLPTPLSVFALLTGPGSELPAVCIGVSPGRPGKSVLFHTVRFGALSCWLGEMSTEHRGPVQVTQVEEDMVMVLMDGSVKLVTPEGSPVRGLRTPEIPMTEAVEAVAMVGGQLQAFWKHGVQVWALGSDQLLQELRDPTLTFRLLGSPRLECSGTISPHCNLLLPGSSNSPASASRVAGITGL

On to `Cc1cc(F)c(Nc2nc(-c3ccc4c(c3)N([C@H]3C[C@@H](N5CCCCC5)C3)C(=O)C43CCN(C(=O)C4CN(C5CCN(c6ccc7c(c6)C(=O)N(C6CCC(=O)NC6=O)C7=O)CC5)C4)CC3)cc3ncn(C(C)C)c23)cc1C(=O)NC(C)C` (stereo partly shown) [Example 24, 5-[(6-{1′-[1-(1-{2-[2,6-dioxopiperidin-3-yl]-1,3-dioxo-2,3-dihydro-1H-isoindol-5-yl}piperidin-4-yl)azetidine-3-carbonyl]-2-oxo-1-[(1s,3s)-3-(piperidin-1-yl)cyclobutyl]-1,2-dihydrospiro[indole-3,4′-piperidin]-6-yl}-3-(propan-2-yl)-3H-imidazo[4,5-c]pyridin-4-yl)amino]-4-fluoro-2-methyl-N-(propan-2-yl)benzamide], for which the Dmax – broadly, the greatest extent of degradation seen – was less than 45%.
